The numbers were not newly measured in patent US12156858B2, “Pharmaceutical compositions comprising levodopa, a dopamine decarboxylase inhibitor and a COMT inhibitor and method of administration thereof” (InTrance Medical Systems Inc., priority 2014, dated 2024), which cites them from elsewhere.

The conditions of the data set: intake of levodopa alone.

Turning to `N[C@@H](Cc1ccc(O)c(O)c1)C(=O)O` [Levodopa, (−)-L-α-amino-β-(3,4-dihydroxybenzene) propanoic acid], the “share metabolized to dopamine before levodopa reaches the brain” value was “more than 90%”.
